Data from PMC7377239, “Cardiovascular Effects of Polychlorinated Biphenyls and Their Major Metabolites” (Environmental Health Perspectives, 2020).
Where two headings read alike, the source gives them in different places.

Tested on: iCell cardiomyocytes (human iPSC-derived cardiomyocytes)
Test: Intracellular Ca2+ flux / beating parameters in iCell cardiomyocytes (FLIPR tetra), 90 min or 24 h
Format: cell-based
Details: Homo sapiens, Cardiomyocyte, 0.00 µM = 100.00; for activity at 0.1 µM: 0.10 µM
How it was run: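 PODs were defined as the concentration crossing one SD of the vehicle-control means (0.5% DMSO) on four-parameter logistic fits of Ca2+ trace metrics (peak height, frequency, peak-spacing CV, decay/rise ratio). Traces came from 100 s, 8 Hz FLIPR reads at 37 °C on calcium-dye-loaded iCell cardiomyocytes. Before reading, cells were treated for 90 min or 24 h from 5× chemical plates spanning 0.05–500 µM, in triplicate.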

[1] = 1.5 h, 90min, read-out: cm.amp.avg.90min
[2] = 1.5 h, 90min, read-out: cm.amp.cv.90min
[3] = 1.5 h, 90min, read-out: cm.bpm.90min
[4] = 1.5 h, 90min, read-out: cm.decay.rise.90min
[5] = 1.5 h, 90min, read-out: cm.spacing.cv.90min
[6] = 24 h, 24hrs, read-out: cm.amp.avg.24hrs
[7] = 24 h, 24hrs, read-out: cm.amp.cv.24hrs
[8] = 24 h, 24hrs, read-out: cm.bpm.24hrs
[9] = 24 h, 24hrs, read-out: cm.decay.rise.24hrs
[10] = 24 h, 24hrs, read-out: cm.spacing.cv.24hrs

Clc1cc(Cl)c(-c2cc(Cl)c(Cl)cc2Cl)cc1Cl [PCB153]
activity at 0.01 µM [1]: 105% | activity at 0.01 µM [2]: 113% | activity at 0.01 µM [3]: 107% | activity at 0.01 µM [4]: 97.7% | activity at 0.01 µM [5]: 119% | activity at 0.1 µM [1]: 107% | activity at 0.1 µM [2]: 98.7% | activity at 0.1 µM [3]: 97.8% | activity at 0.1 µM [4]: 100% | activity at 0.1 µM [5]: 102% | activity at 1 µM [1]: 108% | activity at 1 µM [2]: 121% | activity at 1 µM [3]: 103% | activity at 1 µM [4]: 92.5% | activity at 1 µM [5]: 108% | activity at 10 µM [1]: 93.7% | activity at 10 µM [2]: 126% | activity at 10 µM [3]: 120% | activity at 10 µM [4]: 92.4% | activity at 10 µM [5]: 119% | activity at 100 µM [1]: 0% | activity at 100 µM [2]: 0% | activity at 100 µM [3]: 0% | activity at 100 µM [4]: 0% | activity at 100 µM [5]: 0% | activity at 0.01 µM [6]: 50.2% | activity at 0.01 µM [7]: 50.5% | activity at 0.01 µM [8]: 51.5% | activity at 0.01 µM [9]: 57.7% | activity at 0.01 µM [10]: 50.2% | activity at 0.1 µM [6]: 81.6% | activity at 0.1 µM [7]: 123% | activity at 0.1 µM [8]: 101% | activity at 0.1 µM [9]: 92.5% | activity at 0.1 µM [10]: 108% | activity at 1 µM [6]: 125% | activity at 1 µM [7]: 84.9% | activity at 1 µM [8]: 99.3% | activity at 1 µM [9]: 102% | activity at 1 µM [10]: 97.8% | activity at 10 µM [6]: 122% | activity at 10 µM [7]: 120% | activity at 10 µM [8]: 129% | activity at 10 µM [9]: 93% | activity at 10 µM [10]: 121% | activity at 100 µM [6]: 0% | activity at 100 µM [7]: 0% | activity at 100 µM [8]: 0% | activity at 100 µM [9]: 0% | activity at 100 µM [10]: 0%

Oc1cc(Cl)c(-c2cc(Cl)ccc2Cl)cc1Cl [4-OH PCB52]
activity at 0.01 µM [1]: 107% | activity at 0.01 µM [2]: 94.5% | activity at 0.01 µM [3]: 97.8% | activity at 0.01 µM [4]: 98.4% | activity at 0.01 µM [5]: 115% | activity at 0.1 µM [1]: 103% | activity at 0.1 µM [2]: 96.5% | activity at 0.1 µM [3]: 99.1% | activity at 0.1 µM [4]: 96.6% | activity at 0.1 µM [5]: 104% | activity at 1 µM [1]: 110% | activity at 1 µM [2]: 99.2% | activity at 1 µM [3]: 91.5% | activity at 1 µM [4]: 99.2% | activity at 1 µM [5]: 108% | activity at 10 µM [1]: 105% | activity at 10 µM [2]: 100% | activity at 10 µM [3]: 58.9% | activity at 10 µM [4]: 114% | activity at 10 µM [5]: 102% | activity at 100 µM [1]: 0% | activity at 100 µM [2]: 0% | activity at 100 µM [3]: 0% | activity at 100 µM [4]: 0% | activity at 100 µM [5]: 0% | activity at 0.01 µM [6]: 125% | activity at 0.01 µM [7]: 96.2% | activity at 0.01 µM [8]: 105% | activity at 0.01 µM [9]: 93.1% | activity at 0.01 µM [10]: 102% | activity at 0.1 µM [6]: 79.9% | activity at 0.1 µM [7]: 128% | activity at 0.1 µM [8]: 95.5% | activity at 0.1 µM [9]: 89.2% | activity at 0.1 µM [10]: 94% | activity at 1 µM [6]: 112% | activity at 1 µM [7]: 79.4% | activity at 1 µM [8]: 86.9% | activity at 1 µM [9]: 101% | activity at 1 µM [10]: 82.1% | activity at 10 µM [6]: 80.2% | activity at 10 µM [7]: 113% | activity at 10 µM [8]: 86.9% | activity at 10 µM [9]: 104% | activity at 10 µM [10]: 96.7% | activity at 100 µM [6]: 0% | activity at 100 µM [7]: 0% | activity at 100 µM [8]: 0% | activity at 100 µM [9]: 0% | activity at 100 µM [10]: 0%
